# Tested on: BT-474
# Assay: normalised response (% of control), CellTox Green; higher = less cell death (100 = DMSO, 0 = benzethonium chloride kill control)
# Details: incubation time: 72 h
# How it was run: (§1)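 Each entry is the normalised signal at a single concentration within a series. The series comprised 5 concentrations in 10-fold steps over a compound-specific 10,000-fold range, placed in 384-well plates into which breast cancer cell lines were seeded as 20 µl suspension and incubated 72 h. CellTox Green (485/520 nm) fluorescence and then CellTiter-Glo luminescence were read, with signals normalised per plate to 0.1 % DMSO (100) and a positive kill control (0).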
row,SMILES,normalised response
1,CCn1c(C(=O)N(C2CC2)C2CC2)cc2c3c(ncn3C)c(Nc3cc(C)n(C)n3)nc21 (1000 nM),98.8%
2,CCN(CC)CCCC(C)Nc1ccnc2cc(Cl)ccc12 (centres undefined) [Chloroquine] (10000 nM),35.4%
3,O=C(O)CNC(=O)c1c(O)c2ccccc2n(Cc2ccccc2)c1=O [IOX-2] (5000 nM),100%
4,CN(C)C(=N)NC(=N)N [Metformin] (10000 nM),95%
5,CN(Cc1cnc2nc(N)nc(N)c2n1)c1ccc(C(=O)N[C@@H](CCC(=O)O)C(=O)O)cc1 [Methotrexate] (5000 nM),102%
6,O=[N+]([O-])c1ccc2c(c1)S(=O)(=O)C=C2 [Stattic] (5000 nM),12.7%
7,CC(C)n1cnc2c(NCCc3ccc(O)cc3)nc(-c3csc4ccccc34)nc21 [StemRegenin 1] (1000 nM),100%

# Tested on: BT-549
# Assay: as above
# Details: incubation time: 72 h
# How it was run: as §1
row,SMILES,normalised response
1,CCn1c(C(=O)N(C2CC2)C2CC2)cc2c3c(ncn3C)c(Nc3cc(C)n(C)n3)nc21 (1000 nM),94.2%
2,CCN(CC)CCCC(C)Nc1ccnc2cc(Cl)ccc12 (centres undefined) [Chloroquine] (10000 nM),93.2%
3,O=C(O)CNC(=O)c1c(O)c2ccccc2n(Cc2ccccc2)c1=O [IOX-2] (5000 nM),72.8%
4,CN(C)C(=N)NC(=N)N [Metformin] (10000 nM),76.2%
5,CN(Cc1cnc2nc(N)nc(N)c2n1)c1ccc(C(=O)N[C@@H](CCC(=O)O)C(=O)O)cc1 [Methotrexate] (5000 nM),125%
6,O=[N+]([O-])c1ccc2c(c1)S(=O)(=O)C=C2 [Stattic] (5000 nM),-67.2%
7,CC(C)n1cnc2c(NCCc3ccc(O)cc3)nc(-c3csc4ccccc34)nc21 [StemRegenin 1] (1000 nM),-112%

# Tested on: CAL-120
# Assay: as above
# Details: incubation time: 72 h
# How it was run: as §1
row,SMILES,normalised response
1,CCn1c(C(=O)N(C2CC2)C2CC2)cc2c3c(ncn3C)c(Nc3cc(C)n(C)n3)nc21 (1000 nM),96.2%
2,CCN(CC)CCCC(C)Nc1ccnc2cc(Cl)ccc12 (centres undefined) [Chloroquine] (10000 nM),-30.1%
3,O=C(O)CNC(=O)c1c(O)c2ccccc2n(Cc2ccccc2)c1=O [IOX-2] (5000 nM),98.4%
4,CN(C)C(=N)NC(=N)N [Metformin] (10000 nM),88.3%
5,CN(Cc1cnc2nc(N)nc(N)c2n1)c1ccc(C(=O)N[C@@H](CCC(=O)O)C(=O)O)cc1 [Methotrexate] (5000 nM),98.9%
6,O=[N+]([O-])c1ccc2c(c1)S(=O)(=O)C=C2 [Stattic] (5000 nM),105%
7,CC(C)n1cnc2c(NCCc3ccc(O)cc3)nc(-c3csc4ccccc34)nc21 [StemRegenin 1] (1000 nM),104%

# Tested on: CAL-148
# Assay: as above
# Details: incubation time: 72 h
# How it was run: as §1
row,SMILES,normalised response
1,CCn1c(C(=O)N(C2CC2)C2CC2)cc2c3c(ncn3C)c(Nc3cc(C)n(C)n3)nc21 (1000 nM),87.1%
2,CCN(CC)CCCC(C)Nc1ccnc2cc(Cl)ccc12 (centres undefined) [Chloroquine] (10000 nM),35.5%
3,O=C(O)CNC(=O)c1c(O)c2ccccc2n(Cc2ccccc2)c1=O [IOX-2] (5000 nM),98.5%
4,CN(C)C(=N)NC(=N)N [Metformin] (10000 nM),97.9%
5,CN(Cc1cnc2nc(N)nc(N)c2n1)c1ccc(C(=O)N[C@@H](CCC(=O)O)C(=O)O)cc1 [Methotrexate] (5000 nM),100%
6,O=[N+]([O-])c1ccc2c(c1)S(=O)(=O)C=C2 [Stattic] (5000 nM),51.2%
7,CC(C)n1cnc2c(NCCc3ccc(O)cc3)nc(-c3csc4ccccc34)nc21 [StemRegenin 1] (1000 nM),85.1%

# Tested on: CAL-51
# Assay: as above
# Details: incubation time: 72 h
# How it was run: as §1
row,SMILES,normalised response
1,CCn1c(C(=O)N(C2CC2)C2CC2)cc2c3c(ncn3C)c(Nc3cc(C)n(C)n3)nc21 (1000 nM),98.2%
2,CCN(CC)CCCC(C)Nc1ccnc2cc(Cl)ccc12 (centres undefined) [Chloroquine] (10000 nM),91.5%
3,O=C(O)CNC(=O)c1c(O)c2ccccc2n(Cc2ccccc2)c1=O [IOX-2] (5000 nM),94.9%
4,CN(C)C(=N)NC(=N)N [Metformin] (10000 nM),66.7%
5,CN(Cc1cnc2nc(N)nc(N)c2n1)c1ccc(C(=O)N[C@@H](CCC(=O)O)C(=O)O)cc1 [Methotrexate] (5000 nM),115%
6,O=[N+]([O-])c1ccc2c(c1)S(=O)(=O)C=C2 [Stattic] (5000 nM),-12.3%
7,CC(C)n1cnc2c(NCCc3ccc(O)cc3)nc(-c3csc4ccccc34)nc21 [StemRegenin 1] (1000 nM),118%

# Tested on: CAL-85-1
# Assay: as above
# Details: incubation time: 72 h
# How it was run: as §1
row,SMILES,normalised response
1,CCn1c(C(=O)N(C2CC2)C2CC2)cc2c3c(ncn3C)c(Nc3cc(C)n(C)n3)nc21 (1000 nM),102%
2,CCN(CC)CCCC(C)Nc1ccnc2cc(Cl)ccc12 (centres undefined) [Chloroquine] (10000 nM),93%
3,O=C(O)CNC(=O)c1c(O)c2ccccc2n(Cc2ccccc2)c1=O [IOX-2] (5000 nM),104%
4,CN(C)C(=N)NC(=N)N [Metformin] (10000 nM),98%
5,CN(Cc1cnc2nc(N)nc(N)c2n1)c1ccc(C(=O)N[C@@H](CCC(=O)O)C(=O)O)cc1 [Methotrexate] (5000 nM),102%
6,O=[N+]([O-])c1ccc2c(c1)S(=O)(=O)C=C2 [Stattic] (5000 nM),-36.1%
7,CC(C)n1cnc2c(NCCc3ccc(O)cc3)nc(-c3csc4ccccc34)nc21 [StemRegenin 1] (1000 nM),118%

# Tested on: DU-4475
# Assay: as above
# Details: incubation time: 72 h
# How it was run: as §1
row,SMILES,normalised response
1,CCn1c(C(=O)N(C2CC2)C2CC2)cc2c3c(ncn3C)c(Nc3cc(C)n(C)n3)nc21 (1000 nM),103%
2,CCN(CC)CCCC(C)Nc1ccnc2cc(Cl)ccc12 (centres undefined) [Chloroquine] (10000 nM),96.2%
3,O=C(O)CNC(=O)c1c(O)c2ccccc2n(Cc2ccccc2)c1=O [IOX-2] (5000 nM),103%
4,CN(C)C(=N)NC(=N)N [Metformin] (10000 nM),89.4%
5,CN(Cc1cnc2nc(N)nc(N)c2n1)c1ccc(C(=O)N[C@@H](CCC(=O)O)C(=O)O)cc1 [Methotrexate] (5000 nM),102%
6,O=[N+]([O-])c1ccc2c(c1)S(=O)(=O)C=C2 [Stattic] (5000 nM),104%
7,CC(C)n1cnc2c(NCCc3ccc(O)cc3)nc(-c3csc4ccccc34)nc21 [StemRegenin 1] (1000 nM),107%

# Tested on: HCC1143
# Assay: as above
# Details: incubation time: 72 h
# How it was run: as §1
row,SMILES,normalised response
1,CCn1c(C(=O)N(C2CC2)C2CC2)cc2c3c(ncn3C)c(Nc3cc(C)n(C)n3)nc21 (1000 nM),106%
2,CCN(CC)CCCC(C)Nc1ccnc2cc(Cl)ccc12 (centres undefined) [Chloroquine] (10000 nM),110%
3,O=C(O)CNC(=O)c1c(O)c2ccccc2n(Cc2ccccc2)c1=O [IOX-2] (5000 nM),97.1%
4,CN(C)C(=N)NC(=N)N [Metformin] (10000 nM),72.2%
5,CN(Cc1cnc2nc(N)nc(N)c2n1)c1ccc(C(=O)N[C@@H](CCC(=O)O)C(=O)O)cc1 [Methotrexate] (5000 nM),109%
6,O=[N+]([O-])c1ccc2c(c1)S(=O)(=O)C=C2 [Stattic] (5000 nM),118%
7,CC(C)n1cnc2c(NCCc3ccc(O)cc3)nc(-c3csc4ccccc34)nc21 [StemRegenin 1] (1000 nM),119%

# Tested on: HCC1599
# Assay: as above
# Details: incubation time: 72 h
# How it was run: as §1
row,SMILES,normalised response
1,CCn1c(C(=O)N(C2CC2)C2CC2)cc2c3c(ncn3C)c(Nc3cc(C)n(C)n3)nc21 (1000 nM),89.3%
2,CCN(CC)CCCC(C)Nc1ccnc2cc(Cl)ccc12 (centres undefined) [Chloroquine] (10000 nM),86.2%
3,O=C(O)CNC(=O)c1c(O)c2ccccc2n(Cc2ccccc2)c1=O [IOX-2] (5000 nM),98.2%
4,CN(C)C(=N)NC(=N)N [Metformin] (10000 nM),82.2%
5,CN(Cc1cnc2nc(N)nc(N)c2n1)c1ccc(C(=O)N[C@@H](CCC(=O)O)C(=O)O)cc1 [Methotrexate] (5000 nM),98.8%
6,O=[N+]([O-])c1ccc2c(c1)S(=O)(=O)C=C2 [Stattic] (5000 nM),95.2%
7,CC(C)n1cnc2c(NCCc3ccc(O)cc3)nc(-c3csc4ccccc34)nc21 [StemRegenin 1] (1000 nM),96%

# Tested on: HCC1937
# Assay: as above
# Details: incubation time: 72 h
# How it was run: as §1
row,SMILES,normalised response
1,CCn1c(C(=O)N(C2CC2)C2CC2)cc2c3c(ncn3C)c(Nc3cc(C)n(C)n3)nc21 (1000 nM),120%

# — the supplement of paper PMC4862054
